Experimental findings from patent US12479830B2, “Homopiperazinyl and homopiperidinyl quinazolin-4(3H)-one derivatives having multimodal activity against pain” (ESTEVE PHARMACEUTICALS, S.A., priority 2019, dated 2025) are described below.

Usually Ki stands for a measure of affinity in units of concentration, obtained from inhibition or displacement.

Bounds are passed on as bounds.

For experiment [1], the target named is T1, Human σ1 receptor (Homo sapiens, UniProt Q99720).
T1 construct: expressed in transfected cells; host or cells: HEK-293
T1 sequence (Q99720 whole entry): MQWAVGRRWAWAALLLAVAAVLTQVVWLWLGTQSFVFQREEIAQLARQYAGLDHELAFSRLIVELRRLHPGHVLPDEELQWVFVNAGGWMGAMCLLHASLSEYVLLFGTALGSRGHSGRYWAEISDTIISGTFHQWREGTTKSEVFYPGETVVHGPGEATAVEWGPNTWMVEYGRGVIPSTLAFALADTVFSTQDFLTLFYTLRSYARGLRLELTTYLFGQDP
In words: Human σ1 receptor radioligand assay ([3H](+)-pentazocine binding). The note with it: binding to the σ1 receptor, expressed as Ki class; + also covers inhibition between 1% and 50%. The gist of the method:
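Membranes (7 μg) were incubated with 5 nM [3H](+)-pentazocine in 50 mM Tris-HCl pH 8 for 120 min at 37° C. Non-specific binding was defined with 10 μM haloperidol. Values are % inhibition at 1 or 10 μM or Ki from five concentrations, read by filtration and scintillation counting.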

Experiment [2] concerns the target Human α2δ-1 subunit of Cav2.2 calcium channel (Homo sapiens, UniProt P54289). Put plainly: Human α2δ-1 subunit of Cav2.2 calcium channel assay ([3H]-gabapentin binding). The note with it: binding to the α2δ-1 subunit of voltage-gated calcium channels, expressed as Ki class; + also covers inhibition between 1% and 50%. The gist of the method:
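Human α2δ-1 enriched membranes (2.5 μg) incubated 60 min at 27° C. with 15 nM [3H]-gabapentin in 10 mM Hepes-KOH pH 7.4; non-specific binding with 10 μM pregabalin. Filtration binding; % inhibition at 1 or 10 μM, or Ki from five concentrations.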

Chain of Human α2δ-1 subunit of Cav2.2 calcium channel (P54289 25-1103): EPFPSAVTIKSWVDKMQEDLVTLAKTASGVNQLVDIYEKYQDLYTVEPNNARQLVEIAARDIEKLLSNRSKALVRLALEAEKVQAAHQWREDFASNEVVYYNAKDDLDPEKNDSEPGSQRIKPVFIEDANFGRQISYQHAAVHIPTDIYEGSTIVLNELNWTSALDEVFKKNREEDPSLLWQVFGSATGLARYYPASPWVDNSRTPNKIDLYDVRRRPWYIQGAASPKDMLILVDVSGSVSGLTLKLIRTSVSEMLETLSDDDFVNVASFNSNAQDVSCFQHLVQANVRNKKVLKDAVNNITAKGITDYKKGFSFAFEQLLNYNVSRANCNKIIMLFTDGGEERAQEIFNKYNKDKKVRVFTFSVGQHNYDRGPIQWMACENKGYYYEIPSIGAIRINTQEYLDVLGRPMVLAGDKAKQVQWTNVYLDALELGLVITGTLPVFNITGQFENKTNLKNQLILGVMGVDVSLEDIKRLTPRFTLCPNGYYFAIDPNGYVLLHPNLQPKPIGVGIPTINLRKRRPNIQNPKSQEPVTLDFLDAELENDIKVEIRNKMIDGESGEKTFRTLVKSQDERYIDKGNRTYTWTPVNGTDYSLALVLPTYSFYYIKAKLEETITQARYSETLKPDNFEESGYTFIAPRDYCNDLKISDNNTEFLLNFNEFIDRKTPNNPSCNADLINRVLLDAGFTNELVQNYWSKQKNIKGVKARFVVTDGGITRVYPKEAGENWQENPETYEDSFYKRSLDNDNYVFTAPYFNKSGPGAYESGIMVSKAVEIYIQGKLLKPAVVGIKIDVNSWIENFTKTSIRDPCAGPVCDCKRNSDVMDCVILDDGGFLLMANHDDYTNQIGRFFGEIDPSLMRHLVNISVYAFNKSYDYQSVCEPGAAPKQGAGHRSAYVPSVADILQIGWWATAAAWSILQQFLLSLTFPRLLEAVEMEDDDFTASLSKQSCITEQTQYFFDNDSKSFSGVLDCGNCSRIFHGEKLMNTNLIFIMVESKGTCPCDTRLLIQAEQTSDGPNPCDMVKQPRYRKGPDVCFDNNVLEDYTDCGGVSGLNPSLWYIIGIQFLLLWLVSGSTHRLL

Regarding `CCC[C@H](c1nc2ccc(F)cc2c(=O)n1Cc1ccoc1)N1CCCN(CC)CC1` [Example 228, (R)-2-(1-(4-ethyl-1,4-diazepan-1-yl)butyl)-6-fluoro-3-(furan-3-ylmethyl)quinazolin-4(3H)-one], the figures for the Ki in experiment [1] and in experiment [2] were less than 500 nM and 500 to 5000 nM, respectively.

As for `CCC[C@H](c1nc2cc(OC)c(F)cc2c(=O)n1CC)N1CCCN(C)CC1` [Example 230, (R)-3-ethyl-6-fluoro-7-methoxy-2-(1-(4-methyl-1,4-diazepan-1-yl)butyl)quinazolin-4(3H)-one], the Ki is 500 to 1000 nM in experiment [1] and less than 500 nM in experiment [2].

`CCC[C@H](c1nc2cc(OC)c(F)cc2c(=O)n1CC)N1CCCN(CC)CC1` [Example 231, (R)-3-ethyl-2-(1-(4-ethyl-1,4-diazepan-1-yl)butyl)-6-fluoro-7-methoxyquinazolin-4(3H)-one]: the Ki in experiment [1] was 500 to 1000 nM; in experiment [2] it was less than 500 nM.

Turning to `CCC[C@H](c1nc2cc(F)c(F)cc2c(=O)n1CC)N1CCCN(C)CC1` [Example 232, (R)-3-ethyl-6,7-difluoro-2-(1-(4-methyl-1,4-diazepan-1-yl)butyl)quinazolin-4(3H)-one], the Ki in experiment [1] and in experiment [2] was less than 500 nM throughout.

With `CCC[C@H](c1nc2ccc(F)c(F)c2c(=O)n1CC)N1CCCN(C)CC1` [Example 233, (R)-3-ethyl-5,6-difluoro-2-(1-(4-methyl-1,4-diazepan-1-yl)butyl)quinazolin-4(3H)-one], the Ki in experiment [1] and in experiment [2] was less than 500 nM in each case.

As to `CCC[C@H](c1nc2c(F)cc(Cl)cc2c(=O)n1CC)N1CCCN(C)CC1` [Example 234, (R)-6-chloro-3-ethyl-8-fluoro-2-(1-(4-methyl-1,4-diazepan-1-yl)butyl)quinazolin-4(3H)-one], the inhibition constant (Ki) was 500 to 1000 nM in experiment [1] and less than 500 nM in experiment [2].

As to `CCC[C@H](c1nc2ccc(F)cc2c(=O)n1CC)N1CCN[C@H](C)CC1` [Example 235, 3-ethyl-6-fluoro-2-((R)-1-((R)-5-methyl-1,4-diazepan-1-yl)butyl)quinazolin-4(3H)-one], the Ki in experiment [1] is more than 1000 nM; in experiment [2], less than 500 nM.

As to `CCC[C@H](c1nc2ccc(F)cc2c(=O)n1CC)N1CCN[C@@H](C)CC1` [Example 236, 3-ethyl-6-fluoro-2-((R)-1-((S)-5-methyl-1,4-diazepan-1-yl)butyl)quinazolin-4(3H)-one], the Ki in experiment [1] and in experiment [2] was less than 500 nM throughout.

On to `CCC[C@H](c1nc2cc(F)c(OC)cc2c(=O)n1CC)N1CCN(C)C[C@@H](C)C1` [Example 237, 2-((R)-1-((R)-4,6-dimethyl-1,4-diazepan-1-yl)butyl)-3-ethyl-7-fluoro-6-methoxyquinazolin-4(3H)-one], for which the inhibition constant (Ki) in experiment [1] was more than 1000 nM; in experiment [2] it was less than 500 nM.

Consider `CCC[C@H](c1nc2cc(F)c(OC)cc2c(=O)n1CC)N1CCN(C)C[C@H](C)C1` [Example 238, 2-((R)-1-((S)-4,6-dimethyl-1,4-diazepan-1-yl)butyl)-3-ethyl-7-fluoro-6-methoxyquinazolin-4(3H)-one], for which the Ki is 500 to 1000 nM in experiment [1] and less than 500 nM in experiment [2].

On to `CCC[C@H](c1nc2ccc(F)c(F)c2c(=O)n1CC)N1CCN[C@H](C)CC1` [Example 239, 3-ethyl-5,6-difluoro-2-((R)-1-((R)-5-methyl-1,4-diazepan-1-yl)butyl)quinazolin-4(3H)-one], for which the values for the Ki in experiment [1] and in experiment [2] were more than 1000 nM and more than 5000 nM, respectively.

In the case of `CCC[C@H](c1nc2ccc(F)c(F)c2c(=O)n1CC)N1CCN[C@@H](C)CC1` [Example 240, 3-ethyl-5,6-difluoro-2-((R)-1-((S)-5-methyl-1,4-diazepan-1-yl)butyl)quinazolin-4(3H)-one], the Ki in experiment [1] and in experiment [2] was less than 500 nM each time.

On to `CCC[C@H](c1nc2cc(F)c(F)cc2c(=O)n1CC)N1CCN[C@H](C)CC1` [Example 241, 3-ethyl-6,7-difluoro-2-((R)-1-((R)-5-methyl-1,4-diazepan-1-yl)butyl)quinazolin-4(3H)-one], for which the Ki in experiment [1] is 500 to 1000 nM; in experiment [2] it was less than 500 nM.

On to `CCC[C@H](c1nc2cc(F)c(F)cc2c(=O)n1CC)N1CCN[C@@H](C)CC1` [Example 242, 3-ethyl-6,7-difluoro-2-((R)-1-((S)-5-methyl-1,4-diazepan-1-yl)butyl)quinazolin-4(3H)-one], for which the Ki in experiment [1] and in experiment [2] was less than 500 nM in each case.

`CCC[C@H](c1nc2cc(F)c(OC)cc2c(=O)n1CC)N1CCNC[C@@H](C)C1` [Example 243, 3-ethyl-7-fluroo-6-methoxy-2-((R)-1-((R)-6-methyl-1,4-diazepan-1-yl)butyl)quinazolin-4(3H)-one]: the Ki in experiment [1] is more than 1000 nM; in experiment [2], less than 500 nM.

As for `CCC[C@H](c1nc2cc(F)c(OC)cc2c(=O)n1CC)N1CCNC[C@H](C)C1` [Example 244, 3-ethyl-7-fluoro-6-methoxy-2-((R)-1-((S)-6-methyl-1,4-diazepan-1-yl)butyl)quinazolin-4(3H)-one], the results for the inhibition constant Ki in experiment [1] and in experiment [2] were more than 1000 nM and 500 to 5000 nM, respectively.

`CCC[C@H](c1nc2ccc(Cl)cc2c(=O)n1C)N1CCN[C@H](C)CC1` [Example 245, 6-chloro-3-methyl-2-((R)-1-((R)-5-methyl-1,4-diazepan-1-yl)butyl)quinazolin-4(3H)-one]: the results for the inhibition constant (Ki) in experiment [1] and in experiment [2] were 500 to 1000 nM and more than 5000 nM, respectively.

As for `CCC[C@H](c1nc2ccc(Cl)cc2c(=O)n1C)N1CCN[C@@H](C)CC1` [Example 246, 6-chloro-3-methyl-2-((R)-1-((S)-5-methyl-1,4-diazepan-1-yl)butyl)quinazolin-4(3H)-one], the Ki in experiment [1] is less than 500 nM; in experiment [2], 500 to 5000 nM.

Regarding `CCC[C@H](c1nc2c(F)cc(F)cc2c(=O)n1CC)N1CCCN(C)CC1` [Example 247, (R)-3-ethyl-6,8-difluoro-2-(1-(4-methyl-1,4-diazepan-1-yl)butyl)quinazolin-4(3H)-one], the Ki in experiment [1] was 500 to 1000 nM; in experiment [2] it was less than 500 nM.

With `CCC[C@H](c1nc2c(F)cccc2c(=O)n1CC)N1CCCN(C)CC1` [Example 248, (R)-3-ethyl-8-fluoro-2-(1-(4-methyl-1,4-diazepan-1-yl)butyl)quinazolin-4(3H)-one], the inhibition constant Ki in experiment [1] was more than 1000 nM; in experiment [2] it was less than 500 nM.

As for `CCC[C@H](c1nc2ccc(OC(F)(F)F)cc2c(=O)n1CC)N1CCCN(C)CC1` [Example 249, (R)-3-ethyl-2-(1-(4-methyl-1,4-diazepan-1-yl)butyl)-6-(trifluoromethoxy)quinazolin-4(3H)-one], the results for the Ki in experiment [1] and in experiment [2] were 500 to 1000 nM and less than 500 nM, respectively.

`CCC[C@H](c1nc2c(F)cc(F)cc2c(=O)n1CC)N1CCN[C@H](C)CC1` [Example 250, 3-ethyl-6,8-difluoro-2-((R)-1-((R)-5-methyl-1,4-diazepan-1-yl)butyl)quinazolin-4(3H)-one]: the figures for the inhibitory constant (Ki) in experiment [1] and in experiment [2] were more than 1000 nM and more than 5000 nM, respectively.

With `CCC[C@H](c1nc2c(F)cc(F)cc2c(=O)n1CC)N1CCN[C@@H](C)CC1` [Example 251, 3-ethyl-6,8-difluoro-2-((R)-1-((S)-5-methyl-1,4-diazepan-1-yl)butyl)quinazolin-4(3H)-one], the Ki was less than 500 nM in experiment [1] and 500 to 5000 nM in experiment [2].

Consider `CCC[C@H](c1nc2ccc(C(F)(F)F)cc2c(=O)n1CC)N1CCCN(C)CC1` [Example 252, (R)-3-ethyl-2-(1-(4-methyl-1,4-diazepan-1-yl)butyl)-6-(trifluoromethyl)quinazolin-4(3H)-one], for which the Ki in experiment [1] and in experiment [2] was less than 500 nM throughout.

On to `CCC[C@H](c1nc2ccc(F)cc2c(=O)n1CC)N1CCCNC(C)(C)C1` [Example 253], for which the inhibition constant Ki in experiment [1] was 500 to 1000 nM; in experiment [2], more than 5000 nM.

Take `CCC[C@H](c1nc2ccc(Cl)cc2c(=O)n1C)N1CC[C@H](C)N(C)CC1` [Example 254, 6-chloro-2-((R)-1-((S)-4,5-dimethyl-1,4-diazepan-1-yl)butyl)-3-methylquinazolin-4(3H)-one]: the Ki in experiment [1] was less than 500 nM; in experiment [2], more than 5000 nM.

Take `CCC[C@H](c1nc2ccc(F)cc2c(=O)n1C)N1CCN[C@H](C)CC1` [Example 255, 6-fluoro-3-methyl-2-((R)-1-((R)-5-methyl-1,4-diazepan-1-yl)butyl)quinazolin-4(3H)-one]: the values for the Ki in experiment [1] and in experiment [2] were more than 1000 nM and more than 5000 nM, respectively.

For the compound `CCC[C@H](c1nc2ccc(F)cc2c(=O)n1C)N1CCN[C@@H](C)CC1` [Example 256, 6-fluoro-3-methyl-2-((R)-1-((S)-5-methyl-1,4-diazepan-1-yl)butyl)quinazolin-4(3H)-one], the Ki is less than 500 nM in experiment [1] and 500 to 5000 nM in experiment [2].

In the case of `CCC[C@H](c1nc2ccc(Cl)cc2c(=O)n1C)N1CC[C@@H](C)N(C)CC1` [Example 257, 6-chloro-2-((R)-1-((R)-4,5-dimethyl-1,4-diazepan-1-yl)butyl)-3-mehtylquinazolin-4(3H)-one], the Ki in experiment [1] was less than 500 nM; in experiment [2], more than 5000 nM.

Turning to `CCC[C@H](c1nc2ccc(C(F)(F)F)cc2c(=O)n1CC)N1CCN[C@H](C)CC1` [Example 258, 3-ethyl-2-((R)-1-((R)-5-methyl-1,4-diazepan-1-yl)butyl)-6-(trifluoromethyl)quinazolin-4(3H)-one], the results for the Ki in experiment [1] and in experiment [2] were less than 500 nM and 500 to 5000 nM, respectively.

For `CCC[C@H](c1nc2ccc(C(F)(F)F)cc2c(=O)n1CC)N1CCN[C@@H](C)CC1` [Example 259, 3-ethyl-2-((R)-1-((S)-5-methyl-1,4-diazepan-1-yl)butyl)-6-(trifluoromethyl)quinazolin-4(3H)-one], the Ki in experiment [1] and in experiment [2] was less than 500 nM throughout.
